{"source": "paper PMC7689490", "about": "“Designed CXCR4 mimic acts as a soluble chemokine receptor that blocks atherogenic inflammation by agonist-specific targeting” (Nature Communications, 2020)", "key": {"human CXCR4 [1]": {"system": "human CXCR4", "assay": "MIF-triggered CXCR4-specific signaling in yeast (lacZ read-out)", "format": "cell-based", "conditions": "co-incubation with MIF", "description": "(§1) Briefly, yeast transformants stably expressing human CXCR4 were grown overnight at 30 °C in yeast nitrogen base selective medium (Formedium, UK). Cells were diluted to an OD600 of 0.2 and grown to an OD600 of 0.3–0.6. […] OD600 was measured and activation of CXCR4 signaling quantified by β-galactosidase activity using a commercial BetaGlo Kit (Promega, Mannheim, Germany)."}, "human CXCR4 [2]": {"system": "human CXCR4", "assay": "CXCL12-triggered CXCR4-specific signaling in yeast (lacZ read-out)", "format": "cell-based", "description": "as §1"}, "[3]": {"system": "primary mouse spleen B lymphocytes", "assay": "MIF-triggered Transwell chemotaxis of primary splenic B cells", "format": "cell-based", "conditions": "for MIF-elicited chemotaxis: Suppl. Fig. 15b, individual replicates, n = 4", "quoted_text": "Briefly, splenic B cells were isolated by negative depletion using a Pan B Cell Isolation Kit (Miltenyi Biotec, Bergisch Gladbach, Germany). […] Chemotaxis was followed for 4 h at 37 °C in a humidified atmosphere of 5% CO2. Migrated cells were counted by flow cytometry using CountBright™ Absolute Counting Beads (Molecular Probes-Invitrogen)."}, "[4]": {"system": "carotid arteries of Apoe−/− mice", "assay": "Leukocyte adhesion in ex vivo mounted atherosclerotic carotid arteries under flow (MPM)", "set-up": "species or system mouse", "description": "Monocyte adhesion experiments in atherosclerotic carotid arteries under physiological flow conditions ex vivo have been established[14],[75] and were performed by a slight modification of this procedure. Briefly, seven-week-old Apoe^−/− mice were fed a Western-type HFD (0.2% cholesterol) for 12 weeks. […] On day 3, arteries were prepared and mounted into an arteriograph chamber. […] Mouse leukocytes isolated from the bone marrow of msR4M-L1- or vehicle-treated atherogenic Apoe^−/− mice were stained with fluorescent Green CMFDA or Red CMPTX (Thermo Fisher Scientific). […] The red- and green-stained cell pools were mixed at a 1:1 ratio and 3 × 10^6 cells in 6 mL perfused into the artery of msR4M-L1- or vehicle-treated mice, respectively. Arteries were scanned by MPM using a multispectral TCS SP8 DIVE instrument with filter-free 4TUNE NDD detection module (Leica) and the number of adherent and transmigrated leukocytes determined by scanning multiphoton excitation. Vessel structure (and plaques) were visualized by second harmonic generation (SHG). Image acquisition, visualization, and processing was performed using the LAS X SP8 software package with LAS X 3D visualization and analysis (Leica) and LAS X HyVolution 2 packages from Leica/SVI Huygens, (Laapersveld, NL)."}, "[5]": {"system": "circulating inflammatory cytokines", "assay": "Plasma cytokine array in treated Apoe−/− mice", "format": "in vivo, mouse", "conditions": "reductions for IL-1α, IL-16, TNF-α, CXCL13/BLC; 6 vs 6 mice", "quoted_text": "Plasma samples were diluted (1:10) in array buffer; incubated with antibody detection cocktail for 1 h at RT, exposed to the blocked membranes (overnight, 4 °C), membranes washed and incubated with streptavidin-HRP conjugate working solution (30 min, RT). Membranes were developed with Chemi-Reagent Mix and analyzed by Odyssey® Fc imager. The average signal (mean signal intensity) of duplicate spots was quantified by ImageJ."}, "[6]": {"conditions": "mouse, in vivo"}, "in vivo": {"assay": "in vivo", "conditions": "C57BL/6, mouse, ip, 50 ug per mouse", "quoted_text": "Plasma was immediately separated by centrifugation at 3000 rpm for 10 min at 4 °C, and placed on ice protected from light. Plasma aliquots were diluted (1:1) with SDS-PAGE sample buffer, boiled, analyzed in 10–20% Tricine SDS-PAGE gels, and red fluorescent bands imaged by Odyssey® Fc imager."}}, "note": "Where “and” joins values, the source holds several entries; their conditions need not be identical. Equal values may be shown once.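 For MIF-elicited chemotaxis in this document: migration tracked over 4 h at 37 °C, read out as transmigrated cells counted by flow cytometry with absolute counting beads.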", "data": [{"smiles": "CC[C@H](C)[C@H](NC(=O)[C@H](Cc1ccc(O)cc1)NC(=O)[C@H](CCCNC(=N)N)NC(=O)[C@H](CC(=O)O)NC(=O)CCCCCCCCCCCNC(=O)CCCCCNC(=O)[C@H](CCCCN)NC(=O)[C@H](CS)NC(=O)[C@H](CC(C)C)NC(=O)[C@H](Cc1ccccc1)NC(=O)[C@H](CC(N)=O)NC(=O)CNC(=O)[C@H](Cc1ccccc1)NC(=O)[C@H](Cc1ccc(O)cc1)NC(=O)[C@H](Cc1c[nH]c2ccccc12)NC(=O)[C@H](CC(N)=O)NC(=O)[C@H](C)NC(=O)[C@@H](NC(=O)[C@H](C)NC(=O)[C@@H](N)CC(=O)O)C(C)C)C(=O)N[C@@H](CS)C(=O)N[C@@H](CC(=O)O)C(=O)N[C@@H](CCCNC(=N)N)C(=O)N[C@@H](Cc1ccccc1)C(=O)N[C@@H](Cc1ccc(O)cc1)C(=O)N1CCC[C@H]1C(=O)N[C@@H](CC(N)=O)C(=O)N[C@@H](CC(=O)O)C(=O)N[C@@H](CC(C)C)C(=O)N[C@@H](Cc1c[nH]c2ccccc12)C(=O)N[C@H](C(N)=O)C(C)C", "note": "[msR4M-L1, CXCR4-ECL1[97–110]-6-Ahx-12-Ado-ECL2[182–196]]", "values": [{"measurement": "effect on MIF-triggered CXCR4 reporter signal", "setting": "human CXCR4 [1]", "result": "blocked the β-galactosidase reporter signal in a concentration-dependent manner"}, {"measurement": "effect on CXCL12/CXCR4-elicited signaling", "setting": "human CXCR4 [2]", "result": "remained unaffected"}, {"measurement": "inhibition of MIF-mediated B-cell chemotaxis", "setting": "[3]; 16 nM MIF, peptide at 5-fold molar excess (80 nM)", "result": "fully blocked"}, {"measurement": "MIF-elicited chemotaxis", "setting": "[3]; log(msR4M-L1) (M) = -6.495", "result": "1.49 and 1 and 1.46 and 1.55"}, {"measurement": "MIF-elicited chemotaxis", "setting": "[3]; log(msR4M-L1) (M) = -6.796", "result": "1.24 and 1.03 and 1.49 and 1.3"}, {"measurement": "MIF-elicited chemotaxis", "setting": "[3]; log(msR4M-L1) (M) = -7.097", "result": "1.2 (3×) and 1.12"}, {"measurement": "MIF-elicited chemotaxis", "setting": "[3]; log(msR4M-L1) (M) = -7.495", "result": "1.18 and 1.24 and 2 and 1.77"}, {"measurement": "MIF-elicited chemotaxis", "setting": "[3]; log(msR4M-L1) (M) = -7.796", "result": "1.67 (2×) and 2.32 and 1.89"}, {"measurement": "MIF-elicited chemotaxis", "setting": "[3]; log(msR4M-L1) (M) = -10", "result": "2.52 and 2.18 and 3 and 2.83"}, {"measurement": "number of luminally adhering leukocytes", "setting": "[4]; msR4M-L1 100 µg once daily for 3 days before vessel harvest, 5–6 carotid arteries per group", "result": "significantly reduced"}, {"measurement": "Fig. 5l, leukocyte adhesion in ex vivo mounted carotid arteries", "setting": "[4]; msR4M-L1 group, individual values, n = 6", "result": "12 and 45 and 36 and 16 and 32"}, {"measurement": "circulating inflammatory cytokine levels", "setting": "[5]", "result": "marked reduction"}, {"measurement": "Body weight", "setting": "[6]", "result": "22.3 ± 0.2", "unit": "g"}, {"measurement": "level at time molar", "setting": "in vivo", "result": "20 to 50", "unit": "nM"}]}]}
